# Measured values published in patent publication US12108719B2, “Methods for creating doubled haploid plants” (Monsanto Technology LLC, priority 2015, dated 2024).
# Legend:
# [1] = tested on: DH0 seedlings of Germplasm A; assay: Doubling efficiency of DH0 plants after co-dominant ear induction treatment (Example 2); format: in vivo, maize
# Excerpt: An F1 hybrid-derived haploid induction population derived from female inbred maize plant Germplasm A was germinated in soil and tended in standard greenhouse maize growing conditions for approximately seven days. Seedlings were then subjected to a bulk colchicine-based chromosome doubling treatment as described above. Following treatment, seedlings were transplanted into pots and tended in a greenhouse at standard greenhouse maize growing conditions to recover.
# Twenty-nine days after the colchicine doubling treatment, 77 of the DH0 seedlings were subjected to a co-dominant ear induction treatment comprising the addition of 60 mL of 2.5% PBZ (v/v) in water, which was poured into the soil surrounding the roots of each plant. The seedlings were then tended in standard greenhouse maize growing conditions until they flowered, at which time each plant that produced pollen was self-pollinated. After approximately 3-4 weeks, ears were harvested and the kernels (DH1 seeds) that formed on the treated DH0 plants were counted to determine doubling efficiencies.
# Doubling efficiencies (DE) were calculated under four different constraints, depending on the minimum number of kernels an ear had to produce in order to even be included in the calculation. DE04 represents the portion of all the doubled DH0 plants that produced a total of at least four seeds when all ears were considered. DE20 represents the portion of all the doubled DH0 plants that produced a total of at least 20 kernels when all ears were considered. Similarly, DE30 represents the portion of doubled DH0 plants that produced a total of at least 30 kernels when all ears were considered, and DE50 represents the portion of doubled DH0 plants that produced a total of at least 50 kernels when all ears were considered.
# Furthermore, the above doubling efficiencies were calculated once by considering only the kernels that formed on the primary ear of each plant (Ear1), once by considering only the kernels that formed on the primary and secondary ear of each plant (Ear2), once by considering only the kernels that formed on the primary, secondary, and tertiary ear of each plant (Ear3), and finally by considering all the kernels that formed on all the ears of each plant (Earall).
# haploid mother plant = assay: Tiller induction with doubled haploid mother plant (Example 7); format: in vivo, maize
# Method: A haploid mother plant will be subjected to doubling treatment and thereafter planted in a pot, the soil surrounding the roots drenched with 100 mL of 2.5% of paclobutrazol, and then tended standard maize green house growing conditions for several days. […] One of the resulting daughter tiller plants can be separated from the mother plant, transplanted into a separate pot, and grown via standard green house management procedures to eventually recover a daughter plant with normal haploid morphology.
# [2] = tested on: maize inbred lines Germplasm A and LH244; assay: Co-dominant ear induction in diploid inbred lines (Example 5); format: in vivo
# Method: Seeds of maize inbred lines Germplasm A and LH244 were planted in soil, germinated, and then transplanted to 10-inch pots after approximately one week, one seedling per pot. The plants were subjected to a co-dominant ear induction treatment at the V8 stage comprising drenching the soil surrounding the roots of each plant with 50 mL of a 2.5% PBZ solution (v/v; 0.4% of active ingredient). The plants were tended in a greenhouse until sexual maturity, then they were self-pollinated. When seed set had completed, the number of co-dominant ears, and the total number of kernels, produced by each plant were counted. Control plants for each germplasm were processed in the same way as the treated groups, except that the control plants were not subjected to the co-dominant ear induction treatment.
# [3] = tested on: Diploid maize plants of a common inbred line; assay: Tiller induction in diploids (Example 6); format: in vivo
# Method: Diploid maize plants of a common inbred line were subjected to a tiller induction treatment comprising drenching the soil surrounding the roots with 100 mL of a 2.5% PBZ solution (v/v; 0.4% of active ingredient) approximately one week after germination and then allowed to grow to sexual maturity in 10-inch pots a greenhouse. A control group of plants were grown under identical circumstances except that they were not subjected to the tiller induction treatment.
# Three treatment groups were then formed from the tillers: tillers of the “Co-hab” treatment were allowed to continue growing in the same pot with the mother plant; those of the “-Mother” treatment also remained in the same pot, but the mother plant was removed from the pot; and those of the “Transplanted” treatment group were transplanted from the pot containing the mother plant into separate 10-inch pots, one plant per pot. Any naturally-occurring tillers produced by the control group were allowed to grow in the same pot as the mother plant, similar to the co-hab treatment. All plants were allowed to grow to sexual maturity and self-pollinated when silks and tassels formed. When seed set was complete, the average total number of seeds produced by all plants deriving from the same mother plant seed were counted and plotted in FIG. 3.
# [4] = Ear1 (primary ear only), 60 mL 2.5% PBZ 29 days after colchicine doubling
# [5] = Ear2 (primary and secondary ear), 60 mL 2.5% PBZ after colchicine doubling
# [6] = Ear3 (primary, secondary and tertiary ear), 60 mL 2.5% PBZ after colchicine doubling
# [7] = EarAll (all ears), 60 mL 2.5% PBZ after colchicine doubling
# [8] = 100 mL 2.5% PBZ soil drench approx. one week after germination
smiles,measurement,setting,value
"CC(C)(C)[C@H](O)[C@H](Cc1ccc(Cl)cc1)n1cncn1 (relative stereo) [PBZ, (2S,3S)-1-(4-chlorophenyl)-4,4-dimethyl-2-(1,2,4-triazol-1-yl) pentan-3-ol]",DE04,[1]; [4],71%
same,DE20,[1]; [4],37%
same,DE30,[1]; [4],26%
same,DE50,[1]; [4],23%
same,DE04,[1]; [5],76%
same,DE20,[1]; [5],59%
same,DE30,[1]; [5],47%
same,DE50,[1]; [5],36%
same,DE04,[1]; [6],76%
same,DE20,[1]; [6],65%
same,DE30,[1]; [6],58%
same,DE50,[1]; [6],50%
same,DE04,[1]; [7],76%
same,DE20,[1]; [7],68%
same,DE30,[1]; [7],58%
same,DE50,[1]; [7],52%
same,DH1 seeds yielded by daughter tiller plant when selfed,haploid mother plant; daughter tiller separated and transplanted,several dozen DH1 seeds
same,morphology and tiller production of mother plant,"haploid mother plant; haploid mother plant after doubling treatment, 100 mL of 2.5% paclobutrazol soil drench",shortened internodes and increased tiller production
same,Ave. Ears Per Plant,"[2]; Treated, Germplasm A diploid, 50 mL 2.5% PBZ soil drench at V8",8
same,response of average total kernels per plant and average ears per plant vs control,"[2]; both germplasms (Germplasm A, LH244)",more than doubling
same,morphology of mother plants,[3]; [8],shortened internodes
same,tiller production by mother plants,[3]; [8],induced the mother plants to produce tillers
same,average total seeds per plant vs control group,[3]; Transplanted treatment group (tillers transplanted to separate pots),more than twice the number of seeds as the control group
